Data from article doi:10.1101/2020.04.05.026310v1 (biorxiv, 2020).

T1: mPDXK (mouse pyridoxal kinase) (Mus musculus, UniProt Q8K183)
T1 sequence (Q8K183 1-312): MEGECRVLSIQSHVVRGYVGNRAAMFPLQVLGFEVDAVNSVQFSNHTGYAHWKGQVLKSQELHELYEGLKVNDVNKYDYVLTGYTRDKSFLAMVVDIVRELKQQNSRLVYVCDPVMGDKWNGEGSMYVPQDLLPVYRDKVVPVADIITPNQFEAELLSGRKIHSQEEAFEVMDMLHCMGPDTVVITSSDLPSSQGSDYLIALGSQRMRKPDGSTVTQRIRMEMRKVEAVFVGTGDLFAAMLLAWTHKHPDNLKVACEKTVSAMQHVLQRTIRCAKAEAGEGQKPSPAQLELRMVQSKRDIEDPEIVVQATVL

B1: mPDXK (mouse pyridoxal kinase) (Mus musculus) (protein)
chain: T1 sequence (Q8K183 1-312)

Tests used:
[1] = biological target: T1, mPDXK (mouse pyridoxal kinase); test: photometric PLP formation at […] nm, nonlinear variable-slope fit; type: biochemical
[2] = biological target: T1, mPDXK (mouse pyridoxal kinase); test: photometric PLP formation at […] nm, Dixon plot; type: biochemical
purified protein = substrate: Cc1ncc(CO)c(C=O)c1O; test: purified protein; type: biochemical, Mus musculus; conditions: 1 mM ATP, 1 mM MgCl2, 100 mM KCl, 10 mM Hepes pH 7.3, 37 °C

| Molecule | IC50 [1] | Ki [2] | Km (purified protein) | kcat (purified protein) |
| --- | --- | --- | --- | --- |
| C[C@@H]1CC[C@H]2[C@@H](C)C(=O)O[C@@H]3O[C@@]4(C)CC[C@@H]1[C@]32OO4 [artemisinin] | 229 ± 1.3 µM | 120 ± 2.4 µM |  |  |
| C[C@H]1[C@H](OC(=O)CCC(=O)O)O[C@@H]2O[C@@]3(C)CC[C@H]4[C@H](C)CC[C@@H]1[C@@]24OO3 [artesunate] | 1445 ± 1.4 µM | 1250 ± 4.7 µM |  |  |
| B1 |  |  | 26.0 ± 5.4 µM | 0.1436 ± 0.003 s⁻¹ |
